Data published in patent publication US6420600B1, “Phenylalaninol derivatives” (Hoffman-La Roche Inc., priority 1999, dated 2002).

What was measured:
[1] = tested on: Adult male cynomolgus monkeys; experiment: Acute airway inflammation in the atopic primate (A. suum antigen challenge, bronchoalveolar lavage cell counts); format: in vivo, Macaca fascicularis; conditions: p.o., 2 hours prior to A. suum antigen challenge; lavage at 24 hour after challenge; relative to vehicle treated control animals
Description: Acute airway inflammation in the atopic primate.
Airway inflammation in the monkey was determined using a modification of the protocol described by Turner et al. (Turner et al., 1994). Adult male cynomolgus monkeys (Macaca fascicularis, Hazelton Labs, Denver, Pa.) weighing between 3.6-5.8 kg were used in these studies.
On the day of each experiment the animals were anesthetized with ketamine hydrochloride, 12 mg/kg, and xylazine, 0.5 mg/kg, intubated with a cuffed endotracheal tube (3 mm, Mallinckrodt Medical, St. Louis, Mo.), then seated in an upright position in a specially designed Plexiglass chair (Plas-Labs, Lansing, Mich.). The endotracheal tube was connected to a heated Fleisch pneumotachograph. Airflow was measured via a Validyn differential pressure transducer (DP 45-24) that was attached to the pneumotachograph. Transpulmonary pressure was measured via a second Validyne transducer (DP 45-24) connected between a sidearm of the tracheal cannula and a 18-gauge intrapleural needle inserted in the intercostal space located below the left nipple. […]
Airway inflammation was induced by exposing the animal to an aerosol of A. Suum extract for 60 sec. […] Airway inflammation was assessed by inserting a pediatric bronchoscope into the airway lumen down to about the 4 or 5th generation bronchi and gently lavaging with 3 ×2 ml aliquots of sterile Hanks Balanced Salt Solution. […]

## Cc1cccc(Cl)c1C(=O)N[C@H](CO)Cc1ccc(NC(=O)c2c(Cl)cccc2Cl)cc1 [Example 1, 4-[[(2,6-dichlorophenyl)carbonyl]amino]-N-[(2-chloro-6-methylphenyl)carbonyl]-L-phenylalaninol]
other
  melting point: 198 to 200 °C
[1]
  number of inflammatory cells present in the lavage fluid: significant decrease
  percent of inflammatory cells present in the lavage fluid: significant decrease
